Data set [1] concerns T24 Human Bladder Cancer Cells. As to the kind of experiment: MTT cytotoxicity assay against T24 cells. To be noted: for IC50: Homo sapiens; for increase of cytotoxic potency in the combination over compound alone: VC/HT-1 200:1 after VC+VK3 pretreatment. Type of data set: cell-based. As to the method:
After 1 or 2 days of incubation at 37° C. in humidified CO2 in air, a colorimetric MTT assay (see below) was performed to evaluate the number of remaining viable T24 cells in each well.
The hydroxytolan HT-1 was dissolved in DMSO as 2 mM stock and was then subsequently diluted in MEM so that the final DMSO concentration in any well was <1%. Doubling dilutions of this stock solution were carried out as above.
This assay measures the formation of a colored product produced from a chromogenic substrate, the tetrazole 3-[4,5-dimethylthiazol-2-yl]-2,5 diphenyltetrazolium bromide (“MTT”). The yellow MTT is reduced to purple formazan in the mitochondria of living cells. A solubilization solution (typically dimethyl sulfoxide or sodium dodecyl sulfate (SDS) in dilute hydrochloric acid) is added to dissolve the insoluble purple formazan product into a colored solution. The absorbance of this colored solution is quantified by measuring at a certain wavelength (usually between 500 and 600 nm) by a spectrophotometer. […] This MTT assay is used widely to assess the cytotoxicity and selectivity of compounds such as anti-cancer drugs. The assay is suitable for rapid toxicity characterization of a test agent such as a drug formulation.
A lower CD50 indicates a greater cytotoxic activity (as a lower amount of the agent is needed to achieve a fixed level of cytotoxicity). Two agents can be compared by examining the fold-increase or decrease in their CD50 values.
The CD50 values were interpolated from the curves generated using 12 serial dilutions. When individual compounds were used a single CD50 value is shown. When a combination of two compounds was used, the CD50 of both compounds is presented. Values shown are the mean±standard error of three experiments with six readings per experiment.
(In general: Tetrazolium dyes change colour on reduction, which living cells bring about.)

For data set [2], the system named is Mice. The note with it: daily 6.5 g/Kg for 6 weeks and 2 g/Kg for 2 years; cited from earlier work.
Data set [3] deals with patients with advanced cancer. The note with it: 10 g oral VC; double-blind, placebo-controlled; cited from earlier work.
The subject of data set [4] is terminal cancer patients. The note with it: cited from earlier work.
For data set [5], the system named is advanced lung cancer patients. To be noted: VK3 with mitomycin C, cited from earlier work.
In data set [6] the test system is tumor growth. To be noted: cited from earlier work.
Data set [7] deals with humans. The note with it: cited from earlier work.
The subject of data set [8] is gastrointestinal cancer patients. The note with it: 43 patients; VK3 with mitomycin C; cited from earlier work.
In data set [9] the test system is livers of nude mice. The note with it: appreciably larger doses of VK3; cited from earlier work.
For data set [10] the following is noted: cited from earlier work.
Data set [11] concerns hepatoma. The note with it: 10 mg/2 mL i.p. weekly for 4 weeks, cited from earlier work.
In data set [12] the test system is normal cells. To be noted: cited from earlier work.
[13] abbreviates: T-24, 24 h, incubation time 1 day, compound alone, read-out: CD50 of compounds tested Individually.
Setting [14] is: T-24, 48 h, incubation time 2 days, compound alone, read-out: CD50 of compounds tested Individually.
Where [15] appears, read: T-24, read-out: CD50 of each compound tested in combination after pretreatment with VC and VK3, incubation time 1 day, VC:HT-1 200:1 mixture, 2 h pretreatment with 150 μM VC and 1.5 μM VK3.
Where [16] appears, read: T-24, read-out: CD50 of each compound tested in combination after pretreatment with VC and VK3, incubation time 2 days, VC:HT-1 200:1 mixture, 2 h pretreatment with 150 μM VC and 1.5 μM VK3.

Structures are written as SMILES. Read-outs that look alike come from different tables or passages of the source. Bounds are passed on as bounds.

For `Oc1ccc(C#Cc2ccc(O)cc2)cc1` [HT-1, 4,4′-dihydroxytolan], the IC50 in data set [1] (setting [13]) was found to be 21.5 µM; in data set [1] (setting [14]) it was 10.5 ± 2.7 µM; in [1] (setting [15]), 1.13 µM; in data set [1] (setting [16]), 0.94 ± 0.55 µM. Further, the “increase of cytotoxic potency in the combination over compound alone” value in [1] (after 1 day) is listed as “about 19 fold”; in data set [1] (after 2 days) it was “about 11 fold”.
`O=C1O[C@H]([C@@H](O)CO)C([O-])=C1O.[Na+]` [VC, sodium ascorbate]: in data set [2], the “mortality, weight changes, blood chemistry, hematology, histology, other pathologies” value is on record as “no abnormal rates”. The “effectiveness of oral VC” value in [3] was “no benefits”. Also, the IC50 came out at 849 µM in [1] (setting [13]), 896 ± 59.8 µM in data set [1] (setting [14]), 226 µM in data set [1] (setting [15]) and 187 ± 99 µM in data set [1] (setting [16]). Further, the “mean survival time (MST)” value in data set [4] (100 terminal cancer patients, 10 g/day i.v. for 10 days, then 10 g/day orally, controls 50 days) is recorded as greater than 210 days. For the same compound, in [4] (six treated subjects with ovarian cancer, controls 71 days), the “MST, ovarian cancer subjects” value is on record as 148 days.
For `CC1=CC(=O)c2ccccc2C1=O` [VK3, 2-methyl-1,4-naphthoquinone], in [5] (23 patients), the median survival is recorded as 5.5 months. Further, in data set [5], the “patients with hematologic toxicity” value is 30% and the “patients with some tumor regression” value is reported as 26%. For the same compound, the “inhibition of tumor growth” value in [6] (VK3 225 mg/kg/day with methotrexate) was 84%. In addition, the “inhibition of tumor growth” value in [6] (menadione 250 mg/kg/day with methotrexate 0.75 mg/kg/day) is reported as 99%. Further, the maximum tolerated dose in data set [7] (48-hour i.v. infusion, followed by mitomycin C every four weeks) is 2.5 g/m^2. The toxicity entry in data set [7] (400-500 mg/day over 3-5 consecutive days) is “without any appreciable toxicity”. Also, the hemolysis result in data set [7] (VK3 2.5 g/m^2 then mitomycin C 15 mg/m2 every four weeks) is listed as “no hemolysis”. In addition, the objective response entry in data set [8] is reported as “no objective response”. Moreover, in [9], the hepatotoxicity entry is “no hepatotoxicity”. For the same compound, the water solubility result in [10] (bisulfate form) is recorded as “water soluble”. In addition, the long term survivors in data set [11] is recorded as 5 out of 16. The survival in [11] (controls 17 days) is listed as 60 days.
Regarding `Oc1ccc(/C=C/c2cc(O)cc(O)c2)cc1` [resveratrol, 3,5,4′-trihydroxy-trans-stilbene], in data set [12], the “toxicity to normal cells” value is “significantly toxic to normal cells”. Moreover, the aqueous solubility entry in data set [10] is on record as “relatively low aqueous solubility”.
